Data from PMC7277094 (Biomolecules, 2020).
“And” between values parts separate entries of the source, which are not always exact repeats. Equal values may be shown once. Read-outs that look alike come from different tables or passages of the source.

What was measured:
[1] = tested on: C. jejuni Δtlp3 mutant; assay: Nutrient-depleted hard agar plug chemotaxis assay, Δtlp3 mutant; type: cell-based, C. jejuni NCTC 11168; conditions: CI > 1 attractant, < 1 repellent
[2] = target: T1, Tlp3 LBD (Campylobacter jejuni subsp. jejuni, UniProt Q0P864); assay: Fluorescence-based thermal shift assay; type: binding, C. jejuni strain NCTC 11168; conditions: for Thermal Shift ∆Tm: 20 μM protein, 0.8–1.6 mM Biolog compound, Tm free protein 56.3 °C; for ΔTm at 5000 µM: read-out: Thermal Shift ∆Tm
Text: Tlp3 LBD from C. jejuni strain NCTC 11168 was expressed in E. coli, purified according to the previously published procedure and used for high-throughput screening against the compounds from the Biolog Phenotype Microarray (PM) libraries PM1, PM3B, and PM5 using thermal shift assays. […] Each plate contains 95 compounds and a negative control (water). Thermal-shift-based screening is based on the phenomenon that ligand-binding alters thermal stability of the protein, resulting in an increase or decrease in the protein’s melting temperature (Tm). Screening was performed by following the protocol previously described by McKellar et al., with minor modifications. The compounds in the Biolog PM plates were dissolved in 50 μL of water, yielding a final concentration of 10–20 mM (as indicated by the manufacturer). Each assay was performed in a 25 μL volume and contained 20 μM protein, 0.8–1.6 mM Biolog compound, 10 mM Tris-HCl pH 8.0, 150 mM NaCl, and 10× SYPRO orange reagent (5000× stock, catalogue number S5692; Sigma-Aldrich). The samples were heated from 35 °C to 80 °C at a ramp rate of 0.5 °C min^−1 using a Rotor-Gene Q real-time PCR cycler (Qiagen, Venlo, Netherlands). Protein denaturation was monitored by following changes in the SYPRO Orange fluorescence emission (λex 530 nm/λem 555 nm) that result from the dye binding to the exposed hydrophobic protein regions. All experiments were performed in triplicate. The midpoint of denaturation (the melting temperature Tm) was calculated by fitting the data to the Boltzmann sigmoidal equation for the two-state unfolding model using GraphPad Prism (version 7.02) (GraphPad Software, La Jolla, CA, USA). The thermal shift assay with the three potential ligands identified using in silico screening was performed at a ligand concentration of 5 mM, with other conditions the same.

[3] = target: T1, Tlp3 LBD; assay: Isothermal titration calorimetry (ITC); type: binding, C. jejuni strain NCTC 11168; conditions: for ∆H: ITC binding enthalpy; for ∆H / ∆S / Kd: 25 °C; for ∆S: ITC binding entropy; for Kd / Binding to Tlp3 LBD detected by ITC: 10 µM Tlp3 LBD; for Binding to Tlp3 LBD detected by ITC: ligand at 10 mM
Method: Tlp3 LBD was dialysed against a buffer containing 100 mM Tris-HCl pH 8.0 and 150 mM NaCl. […] Calorimetry measurements were conducted on a VP-ITC MicroCal calorimeter (Malvern Instruments, UK) at 25 °C. The Tlp3 LBD sample (10 µM) in a 1.45 mL reaction cell was titrated with 25 successive 10 µL injections of ligand solution at a spacing of 200 s. All measurements were made in triplicate and corrected for heat changes measured when the ligand was titrated into the buffer. The data were integrated and normalised for protein concentration to generate binding isotherms.

[4] = target: T1, Tlp3 LBD; set-up: method as in PMID 26457436; conditions: L-isoleucine not among ligands titrated here; listed as footnoted to previous study ref 32; cited from earlier work
[5] = tested on: Tlp3 LBD Tyr118Ala; set-up: method as in PMID 26457436; conditions: Tyr118Ala vs wild-type Tlp3 LBD ref 32; cited from earlier work
[6] = tested on: Tlp3 LBD; assay: Co-crystallisation with Tlp3 LBD and X-ray electron density analysis; type: binding, C. jejuni; conditions: co-crystallised with 8 mM ligand; 1.4–1.5 Å resolution
Method: The solution was then clarified by centrifugation at 13,000 g, 4 °C for 20 min and protein crystallisation was carried out by the hanging drop vapour diffusion method using crystallisation conditions similar to those described previously. Briefly, crystals were grown in 2 µL hanging drops suspended over 500 µL reservoir solution containing 22% (w/v) polyethylene glycol 3350, 100 mM sodium citrate pH 5.0 and 200 mM ammonium sulphate. The hanging drop was prepared by adding 1 µL of the protein/ligand mix to 1 µL of the reservoir solution. Crystals of all Tlp3 LBD/ligand complexes had similar unit-cell parameters and belonged to space group P2_1 (Table 2), with two molecules in the asymmetric unit.
To perform data collection at cryogenic temperatures, the crystals were briefly soaked in a cryoprotectant solution consisting of 26% (w/v) polyethylene glycol 3350, 100 mM sodium citrate pH 5.0, 200 mM ammonium sulphate, 10% (v/v) glycerol, and 10 mM respective ligand, and then flash-cooled by plunging them into liquid nitrogen. X-ray diffraction data were collected at 100 K on the MX1 and MX2 beamlines of the Australian Synchrotron. The data were processed using iMOSFLM [65] and scaled with AIMLESS [66] from the CCP4 software suite.
The crystal structures were determined using molecular replacement with PHASER [68] and the protein coordinates of the Tlp3 LBD/isoleucine complex (PDB code, 4XMR) as a search model. The models were refined with PHENIX [69] and manually rebuilt where necessary using COOT [70]. Analysis of the stereochemical quality of the final models was performed using MOLPROBITY [71]. The accessible surface area was calculated using AREAIMOL from CCP4. The structure figures were produced using PyMOL 4.1 [72].

[7] = tested on: C. jejuni WT strain; assay: Nutrient-depleted hard agar plug chemotaxis assay, WT strain; type: cell-based, C. jejuni NCTC 11168; conditions: plugs prepared from 50–200 mM compound, CI > 1 attractant, < 1 repellent
[8] = single-site model, NB = no binding detected by ITC

T1 sequence (Q0P864 entry or part of it): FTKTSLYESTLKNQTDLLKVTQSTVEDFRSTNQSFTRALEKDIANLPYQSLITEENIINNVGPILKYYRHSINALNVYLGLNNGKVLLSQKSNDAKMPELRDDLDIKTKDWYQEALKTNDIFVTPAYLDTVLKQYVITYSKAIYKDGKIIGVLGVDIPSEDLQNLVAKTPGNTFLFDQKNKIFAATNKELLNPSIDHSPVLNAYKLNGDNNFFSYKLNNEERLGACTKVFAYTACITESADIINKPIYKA

Compound | Thermal Shift ∆Tm [2] [°C] | ∆H [3] [kcal/mol] | ∆S [3] [cal mol^−1 deg^−1] | Kd [3, 8] [µM] | Binding to Tlp3 LBD detected by ITC [3] | further results
N[C@@H](CO)C(=O)O [serine, L-serine] | – | – | – | – | – | Chemotactic response (chemotactic index CI) [1]: did not affect
CC(C)[C@H](N)C(=O)O [L-valine] | 1.3 ± 0.1 | -4.4 ± 0.2 | 0.8 | 405 ± 27 | – | –
CC[C@H](C)[C@H](N)C(=O)O [L-isoleucine] | – | – | – | – | – | ∆H [4]: -4.4 ± 0.2 kcal/mol; ∆S [4]: 3.6 cal mol^−1 deg^−1; Reduction in binding affinity on Tyr118Ala substitution [5]: ≥ 35 fold
c1ncc2nc[nH]c2n1 [purine] | – | – | – | – | did not bind | –
CCC(C)(C)[C@H](N)C(=O)O [3-methyl-L-isoleucine] | – | -5.7 ± 0.2 | −4.03 | 484 ± 30 | – | ΔTm at 5000 µM [2]: 2 ± 0.1 °C; Reduction of binding affinity (two methyl groups at Position 3) ([3]; compared with single methyl substitution at Position 3 (L-isoleucine)): at least 5 fold
N=C(N)NCCC[C@H](N)C(=O)O [L-arginine] | – | – | – | – | no binding | Electron density for ligand bound to Tlp3 LBD in crystal [6]: no electron density
CC(C)[C@H](C)[C@H](N)C(=O)O [4-methyl-L-isoleucine] | – | -5.1 ± 0.2 | −1.01 | 324 ± 20 | – | ΔTm at 5000 µM [2]: 2.8 ± 0.3 °C
N[C@@H](Cc1ccccc1)C(=O)O [L-phenylalanine] | −0.3 ± 0.4 | -5.9 ± 0.3 | −5.44 | 730 ± 55 | – | Chemotactic response (chemotactic index CI) [7]: Tlp3-dependent attractant response
CC(C)C[C@H](N)C(=O)O [L-leucine] | 2.4 ± 0.2 | -4.6 ± 0.1 | 2.9 | 105 ± 6 | – | –
CCC[C@@H](N)C(=O)O [α-amino-N-valeric acid] | 1.4 ± 0.3 | -6.5 ± 0.2 | −4.5 | 168 ± 9 | – | –
Nc1ccn([C@H]2C[C@H](O)[C@@H](CO)O2)c(=O)n1 [2-deoxycytidine] | 1.4 ± 0.8 | – | – | – | no binding | –
O=C(O)CC(O)C(=O)O (stereo not drawn) [malic acid] | – | – | – | – | – | Electron density for ligand bound to Tlp3 LBD in crystal [6]: no electron density
N[C@@H](CC(=O)O)C(=O)O [L-aspartic acid] | – | – | – | – | no binding | Electron density for ligand bound to Tlp3 LBD in crystal [6]: no electron density
COC(=O)C(C)=O [methyl pyruvate] | −1.8 ± 0.0 | – | – | – | no binding | –
NCCCC[C@H](N)C(=O)O [L-lysine] | – | – | – | – | no binding | Electron density for ligand bound to Tlp3 LBD in crystal [6]: no electron density
C[C@H](N)C(=O)N[C@H](C(=O)O)[C@H](C)O [Ala-Thr] | 1.1 ± 0.3 | – | – | – | no binding | –
CCC[C@@H](C)C(N)C(=O)O (stereo in doubt) [β-methyl-L-norleucine] | – | -6.2 ± 0.2 | −4.77 | 294 ± 14 | – | ΔTm at 5000 µM [2]: 3.7 ± 0.2 °C
C[C@H](N)C(=O)O [L-alanine] | −0.6 ± 0.7 | -150.2 ± 54.5 | −495.50 | 4980 ± 917 | – | Kd ([3]; 50 mM ligand): ~5000 µM and 5000 µM; Chemotactic response (chemotactic index CI) [7]: Tlp3-dependent attractant response
